{
  "source": "ChEMBL document CHEMBL5107956",
  "about": "“Natural products from mangrove sediments-derived microbes: Structural diversity, bioactivities, biosynthesis, and total synthesis” (Eur J Med Chem, 2022)",
  "key": {"[1]": {"experiment": "Antiproliferative activity against human Pancreatic cancer cell assessed as cell growth inhibition measured after 24 hrs by CCK-8 assay", "format": "functional, cell-based"}, "[2]": {"system": "Candida albicans", "experiment": "Antifungal activity against Candida albicans ATCC 10231 assessed as fungal growth inhibition by agar dilution method", "format": "functional"}, "[3]": {"system": "HCT-116", "experiment": "Cytotoxicity against human HCT-116 cells assessed as cell growth inhibition by MTT assay", "format": "functional, cell-based"}, "[4]": {"system": "Staphylococcus aureus", "experiment": "Antibacterial activity against methicillin-resistant Staphylococcus aureus assessed as bacterial cell growth inhibition by agar dilution method", "format": "functional"}, "[5]": {"system": "Escherichia coli", "experiment": "Antibacterial activity against Escherichia coli S002 assessed as bacterial cell growth inhibition by agar dilution method", "format": "functional"}, "[6]": {"system": "Bacillus subtilis", "experiment": "Antibacterial activity against Bacillus subtilis S028 assessed as bacterial cell growth inhibition by agar dilution method", "format": "functional"}, "[7]": {"system": "Staphylococcus aureus", "experiment": "Antibacterial activity against Staphylococcus aureus S014 assessed as bacterial cell growth inhibition by agar dilution method", "format": "functional"}, "[8]": {"experiment": "Antioxidant activity assessed as free radical scavenging activity incubated for 30 mins by microplate reader analysis", "format": "functional"}, "[9]": {"system": "Influenza A virus", "experiment": "Antiviral activity against Influenza A virus H1N1", "format": "functional, organism-based"}, "[10]": {"system": "Staphylococcus aureus", "experiment": "Antibacterial activity against Staphylococcus aureus ATCC 25923 assessed as bacterial growth inhibition", "format": "functional, organism-based"}, "[11]": {"experiment": "Antioxidant activity assessed as free radical scavenging activity incubated for 30 mins under dark condition by microplate reader analysis", "format": "functional"}, "[12]": {"system": "HL-60", "experiment": "Antiproliferative activity against human HL-60 cells assessed as cell growth inhibition measured after 72 hrs by CCK-8 assay", "format": "functional, cell-based", "conditions": "HL-60, 72 h"}, "[13]": {"system": "A549", "experiment": "Cytotoxicity against human A549 cells assessed as cell growth inhibition incubated for 48 hrs by CCK-8 assay", "format": "functional, cell-based", "conditions": "A549, 48 h"}, "[14]": {"system": "HCT-116", "experiment": "Cytotoxicity against human HCT-116 cells assessed as cell growth inhibition incubated for 48 hrs by CCK-8 assay", "format": "functional, cell-based", "conditions": "HCT-116, 48 h"}, "[15]": {"biological_target": "Prostaglandin G/H synthase 2 (Homo sapiens) (UniProt P35354)", "sequence (P35354 whole entry, looked up)": "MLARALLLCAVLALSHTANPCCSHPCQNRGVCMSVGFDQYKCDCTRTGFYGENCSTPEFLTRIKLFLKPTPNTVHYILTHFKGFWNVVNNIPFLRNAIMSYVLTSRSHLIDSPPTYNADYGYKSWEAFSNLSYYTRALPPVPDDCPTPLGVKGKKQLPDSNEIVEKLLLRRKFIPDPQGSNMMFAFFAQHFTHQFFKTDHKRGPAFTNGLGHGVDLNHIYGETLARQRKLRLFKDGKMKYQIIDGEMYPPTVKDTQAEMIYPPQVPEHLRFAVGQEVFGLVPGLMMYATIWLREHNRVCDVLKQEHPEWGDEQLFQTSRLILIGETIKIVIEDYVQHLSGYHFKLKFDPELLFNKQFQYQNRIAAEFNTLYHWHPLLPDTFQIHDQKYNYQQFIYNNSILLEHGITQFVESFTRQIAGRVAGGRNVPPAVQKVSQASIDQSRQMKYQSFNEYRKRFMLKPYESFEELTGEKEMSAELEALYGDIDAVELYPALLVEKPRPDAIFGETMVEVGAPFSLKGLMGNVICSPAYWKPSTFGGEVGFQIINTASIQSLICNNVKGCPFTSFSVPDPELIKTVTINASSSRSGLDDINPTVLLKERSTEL", "experiment": "Inhibition of COX2 (unknown origin) at 20 nM relative to control"}, "[16]": {"system": "HL-60", "experiment": "Cytotoxicity against human HL-60 cells assessed as cell growth inhibition measured after 72 hrs by MTT assay", "format": "functional, cell-based", "conditions": "HL-60, 72 h"}, "[17]": {"system": "A549", "experiment": "Cytotoxicity against human A549 cells assessed as cell growth inhibition measured after 72 hrs by MTT assay", "format": "functional, cell-based", "conditions": "A549, 72 h"}, "[18]": {"system": "P388", "experiment": "Cytotoxicity against mouse P388 cells assessed as cell growth inhibition measured after 72 hrs by MTT assay", "format": "functional, cell-based", "conditions": "Mus musculus, P388, 72 h"}},
  "data": [
    {"compound": "COC(C)[C@H]1[C@H]2[C@H](C[C@H]1C)[C@H]1C[C@H]3/C=C/C(=O)C4=C(O)[C@@H](CCCNC(=O)/C=C\\C[C@@H]3[C@H]1[C@@H]1O[C@@H]12)NC4=O", "note": "(some centres not stated)", "values": [
      {"measurement": "IC50", "setting": "[1]", "result": 1.3, "unit": "µM"}
    ]},
    {"compound": "C/N=C(\\N)NCCC/C=C/CCCC(C)C1OC(=O)/C(C)=C/C=C/C(C)C(O)CC(O)C(C)C(O)CCC(C)C(O)CC2(O)OC(CC(OC(=O)CC(=O)O)CC(O)CC(O)CC(O)/C(C)=C/C=C/C1C)CC(O)C2O", "note": "(configuration not stated)", "values": [
      {"measurement": "MIC", "setting": "[2]", "result": 1.65, "unit": "µg/mL"},
      {"measurement": "IC50", "setting": "[3]", "result": 1.81, "unit": "µg/mL"},
      {"measurement": "MBC", "setting": "[4]", "result": 8, "unit": "µg/mL"},
      {"measurement": "MIC", "setting": "[4]", "result": 4, "unit": "µg/mL"}
    ]},
    {"compound": "C/N=C(\\NC)NCCC/C=C/CCC[C@H](C)[C@@H]1OC(=O)/C(C)=C/C=C/[C@H](C)[C@@H](O)C[C@H](O)[C@@H](C)[C@H](O)CC[C@H](C)[C@@H](O)C[C@@]2(O)O[C@@H](C[C@@H](OC(=O)C(N)C(C)C)C[C@H](O)C[C@@H](O)C[C@H](O)/C(C)=C/C=C/[C@H]1C)C[C@@H](O)[C@@H]2O", "note": "(some centres not stated)", "values": [
      {"measurement": "MIC", "setting": "[2]", "result": 1.65, "unit": "µg/mL"},
      {"measurement": "MIC", "setting": "[5]", "result": 3.13, "unit": "µg/mL"},
      {"measurement": "MIC", "setting": "[6]", "result": 0.2, "unit": "µg/mL"},
      {"measurement": "MIC", "setting": "[7]", "result": 0.39, "unit": "µg/mL"}
    ]},
    {"compound": "O=C(O)CCCNC(=O)c1ccc(O)c(O)c1", "values": [
      {"measurement": "IC50", "setting": "[8]", "result": 4.7, "unit": "µM"}
    ]},
    {"compound": "CC(=O)C[C@H](c1nc2ccccc2c(=O)n1[C@@H]1C[C@]2(OC1=O)c1ccccc1N1C(=O)[C@H](C)N[C@H]12)C(C)C", "values": [
      {"measurement": "IC50", "setting": "[9]", "result": 82, "unit": "µM"}
    ]},
    {"compound": "CC(=O)C[C@H](c1nc2ccccc2c(=O)n1[C@@H]1C[C@]2(OC1=O)c1ccccc1N1C(=O)C(C)(C)N[C@H]12)C(C)C", "values": [
      {"measurement": "IC50", "setting": "[9]", "result": 82, "unit": "µM"}
    ]},
    {"compound": "CCOC(=O)[C@]1(Cc2ccc(O)c(CC3OC3(C)C)c2)OC(=O)C(O)C1c1ccc(O)cc1", "note": "(some centres not stated)", "values": [
      {"measurement": "IC50", "setting": "[10]", "result": 21.3, "unit": "µM"}
    ]},
    {"compound": "C/C=C/C=C/CCc1c(O)ccc(O)c1CO", "values": [
      {"measurement": "IC50", "setting": "[11]", "result": 9.3, "unit": "µM"}
    ]},
    {"compound": "COc1nc(C/C=C(\\C)C/C=C/C(C)=C/[C@@H](C)/C=C(\\C)[C@H](C)O)c(C)c(O)c1OC", "values": [
      {"measurement": "IC50", "setting": "[12]", "result": "< 0.1", "unit": "µM"}
    ]},
    {"compound": "C[C@@H]1O[C@@H](Oc2ccc(-c3cc(=O)c4ccc(O[C@H]5C[C@H](O)[C@H](O)[C@H](C)O5)cc4o3)cc2)C[C@H](O)[C@@H]1O", "values": [
      {"measurement": "IC50", "setting": "[13]", "result": 13.5, "unit": "µg/mL"},
      {"measurement": "IC50", "setting": "[14]", "result": 13.5, "unit": "µg/mL"}
    ]},
    {"compound": "CCOC(=O)[C@]1(Cc2ccccc2)OC(=O)C(O)C1c1ccc(O)cc1", "note": "(some centres not stated)", "values": [
      {"measurement": "inhibition", "setting": "[15]", "result": 98.3, "unit": "%"}
    ]},
    {"compound": "O=C1OC(Cc2ccc(O)cc2)C(c2ccc(O)cc2)C1O", "note": "(configuration not stated)", "values": [
      {"measurement": "IC50", "setting": "[10]", "result": 17.4, "unit": "µM"}
    ]},
    {"compound": "O=C(NCCCCO)c1ccc(O)c(O)c1", "values": [
      {"measurement": "IC50", "setting": "[8]", "result": 4.7, "unit": "µM"}
    ]},
    {"compound": "CN[C@@H]1O[C@H]2C[C@@](C)([C@@H]1OC)n1c3ccccc3c3c4c(c5c6ccccc6n2c5c31)C(=O)NC4", "values": [
      {"measurement": "IC50", "setting": "[3]", "result": 0.04, "unit": "µM"}
    ]},
    {"compound": "CC1(C)C=Cc2c(ccc3c4c(n(O)c23)C(C)(C)[C@H]2C[C@]35CCCN3C(=O)[C@@]2(C4)NC5=O)O1", "values": [
      {"measurement": "IC50", "setting": "[16]", "result": 4.45, "unit": "µM"},
      {"measurement": "IC50", "setting": "[17]", "result": 1.88, "unit": "µM"}
    ]},
    {"compound": "C=CC(C)(C)c1[nH]c2ccccc2c1/C=C1\\NC(=O)[C@@]2(C[C@@H](C)C=C[C@@H]2/C=C/c2c(O)cc(CC=C(C)C)c(O)c2C=O)NC1=O", "values": [
      {"measurement": "IC50", "setting": "[18]", "result": 11.3, "unit": "µM"}
    ]},
    {"compound": "COC(=O)Nc1ccc(C)c(NC(=O)N(C)[C@@H]2O[C@H]3C[C@@](C)([C@@H]2OC)n2c4ccccc4c4c5c(c6c7ccccc7n3c6c42)C(=O)NC5)c1", "values": [
      {"measurement": "IC50", "setting": "[3]", "result": 0.37, "unit": "µM"}
    ]},
    {"compound": "C=C1CCC(C(C)C)C2/C=C(\\C(=O)OC)CC/C=C(/C(=O)O)C(O)CC12", "note": "(configuration not stated)", "values": [
      {"measurement": "IC50", "setting": "[14]", "result": 38.4, "unit": "µM"}
    ]},
    {"compound": "O=C1NC(=O)[C@H](Cc2c[nH]c3ccccc23)n2c1nc1ccccc1c2=O", "values": [
      {"measurement": "IC50", "setting": "[9]", "result": 82, "unit": "µM"}
    ]},
    {"compound": "CC(=O)C[C@H](c1nc2ccccc2c(=O)n1[C@@H]1C[C@]2(OC1=O)c1ccccc1N1C(=O)C(C)(C)N(O)[C@H]12)C(C)C", "values": [
      {"measurement": "IC50", "setting": "[9]", "result": 82, "unit": "µM"}
    ]},
    {"compound": "O=C(NCCCO)c1ccc(O)c(O)c1", "values": [
      {"measurement": "IC50", "setting": "[8]", "result": 4.7, "unit": "µM"}
    ]},
    {"compound": "CC1=CC(=O)[C@H]2C(C)(C)CCC[C@]2(C)[C@@]1(O)C=O", "values": [
      {"measurement": "IC50", "setting": "[18]", "result": 8.7, "unit": "µM"}
    ]},
    {"compound": "CC(C)=CCc1cc(C[C@@]2(CC=C(C)C)OC(=O)C(O)C2c2ccccc2)ccc1O", "note": "(some centres not stated)", "values": [
      {"measurement": "inhibition", "setting": "[15]", "result": 66.3, "unit": "%"}
    ]},
    {"compound": "CC[C@H]1[C@@H]2C=C[C@@H]3[C@H]4C/C=C\\C(=O)NCCC[C@H]5NC(=O)C(=C5O)C(=O)/C=C/[C@@H]4C[C@@H]3[C@H]2C[C@H]1C", "values": [
      {"measurement": "IC50", "setting": "[1]", "result": 1.3, "unit": "µM"}
    ]}
  ]
}
